Measurements taken from US8921397B2, “Benzofurane-piperidine compounds” (Hoffmann-La Roche Inc., priority 2011, dated 2014).
pKi: −log10 of the molar value.

Key:
human 5-HT2A receptor = human 5-HT2A receptor (Homo sapiens (Human), UniProt P28223); assay: Radioligand binding ([3H]-ketanserin) to human 5-HT2A receptor, HEK293 EBNA membranes; settings: HEK293 EBNA cells expressing human 5-HT2A receptor
Method in brief: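 Membranes from HEK293 EBNA cells transiently expressing the human receptor were incubated 1 h at RT with ~0.7 nM (D2) or 0.5 nM (D3) [3H]-spiperone, or 1.1 nM [3H]-ketanserin (5-HT2A), plus ten compound concentrations (10 μM–0.1 nM). Nonspecific binding was set with 10 μM spiperone; Ki was derived from IC50 via Cheng-Prusoff.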

human D3 receptor = human D3 receptor (Homo sapiens (Human), UniProt P35462); assay: Radioligand binding ([3H]-spiperone) to human D3 receptor, HEK293 EBNA membranes; settings: HEK293 EBNA cells expressing human D3 receptor
Sequence of human D3 receptor (P35462 whole entry): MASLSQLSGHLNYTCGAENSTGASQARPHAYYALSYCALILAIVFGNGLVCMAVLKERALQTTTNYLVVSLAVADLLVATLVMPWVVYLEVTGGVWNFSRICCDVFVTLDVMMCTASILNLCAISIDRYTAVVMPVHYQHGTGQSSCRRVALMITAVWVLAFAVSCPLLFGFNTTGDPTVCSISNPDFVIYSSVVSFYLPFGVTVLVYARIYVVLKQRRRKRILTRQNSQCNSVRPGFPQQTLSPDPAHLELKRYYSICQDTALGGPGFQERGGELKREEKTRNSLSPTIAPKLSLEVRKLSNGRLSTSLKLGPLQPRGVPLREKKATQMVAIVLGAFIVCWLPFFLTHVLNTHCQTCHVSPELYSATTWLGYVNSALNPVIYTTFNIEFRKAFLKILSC
Method in brief: (§1)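 Membranes from transiently transfected HEK293 EBNA cells (~7.5 μg protein/well) were incubated 1 h at RT with [3H]-spiperone (~0.7 nM for D2, 0.5 nM for D3) and ten compound concentrations (10 μM–0.1 nM) in Tris/NaCl/MgCl2/CaCl2 buffer pH 7.4. Filtration and scintillation counting, nonspecific with 10 μM spiperone; Ki via Cheng-Prusoff.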

human D2 receptor = human D2 receptor (Homo sapiens (Human), UniProt P14416); assay: Radioligand binding ([3H]-spiperone) to human D2 receptor, HEK293 EBNA membranes; settings: HEK293 EBNA cells expressing human D2 receptor
Sequence of human D2 receptor (P14416 whole entry): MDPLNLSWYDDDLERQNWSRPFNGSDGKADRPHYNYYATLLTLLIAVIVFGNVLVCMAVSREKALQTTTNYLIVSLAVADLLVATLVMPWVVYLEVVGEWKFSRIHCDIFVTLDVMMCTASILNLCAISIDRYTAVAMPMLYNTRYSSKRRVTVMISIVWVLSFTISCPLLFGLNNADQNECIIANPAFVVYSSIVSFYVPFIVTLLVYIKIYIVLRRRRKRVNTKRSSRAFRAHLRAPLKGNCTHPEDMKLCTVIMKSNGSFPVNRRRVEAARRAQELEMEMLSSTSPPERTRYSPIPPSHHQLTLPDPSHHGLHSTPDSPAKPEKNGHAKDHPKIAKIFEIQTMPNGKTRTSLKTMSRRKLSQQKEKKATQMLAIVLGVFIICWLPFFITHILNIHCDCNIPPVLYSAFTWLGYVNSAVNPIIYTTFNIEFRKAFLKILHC
Method in brief: as §1

Sequence of human 5-HT2A receptor (P28223 whole entry): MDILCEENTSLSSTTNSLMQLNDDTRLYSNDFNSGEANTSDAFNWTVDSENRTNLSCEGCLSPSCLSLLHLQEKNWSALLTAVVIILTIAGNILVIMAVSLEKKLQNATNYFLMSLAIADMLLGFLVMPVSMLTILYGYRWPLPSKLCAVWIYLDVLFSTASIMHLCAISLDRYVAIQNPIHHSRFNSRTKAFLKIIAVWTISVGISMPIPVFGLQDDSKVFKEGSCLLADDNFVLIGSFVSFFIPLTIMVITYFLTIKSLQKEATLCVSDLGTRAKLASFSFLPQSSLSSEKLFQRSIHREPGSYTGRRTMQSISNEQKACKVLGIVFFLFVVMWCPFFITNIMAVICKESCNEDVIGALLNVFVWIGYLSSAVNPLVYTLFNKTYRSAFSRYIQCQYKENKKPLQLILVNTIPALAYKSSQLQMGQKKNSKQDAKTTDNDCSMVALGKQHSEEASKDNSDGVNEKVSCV

| Structure (SMILES) | pKi (human 5-HT2A receptor) | pKi (human D3 receptor) | melting point [°C] | pKi (human D2 receptor) | D2 Ki (human D2 receptor) |
| --- | --- | --- | --- | --- | --- |
| CC(C)(C)C1CCC(C(=O)N[C@H]2CC[C@H](CCN3CCC(c4coc5ccccc45)CC3)CC2)CC1 (stereo partly drawn) [Example 77, 4-tert-Butyl-cyclohexanecarboxylic acid trans-{4-[2-(4-benzofuran-3-yl-piperidin-1-yl)-ethyl]-cyclohexyl}-amide] | 8.22 | 8.02 | 199 | 6.46 |  |
| O=C(N[C@H]1CC[C@H](CCN2CCC(c3coc4ccccc34)CC2)CC1)C12CC3CC(CC(C3)C1)C2 [Example 78, Adamantane-1-carboxylic acid trans-{4-[2-(4-benzofuran-3-yl-piperidin-1-yl)-ethyl]-cyclohexyl}-amide] | 7.76 | 7.90 | 200 | 6.89 |  |
| O=C(N[C@H]1CC[C@H](CCN2CCC(c3coc4ccccc34)CC2)CC1)C1CCC(C(F)(F)F)CC1 (stereo partly drawn) [Example 79, 4-Trifluoromethyl-cyclohexanecarboxylic acid trans-{4-[2-(4-benzofuran-3-yl-piperidin-1-yl)-ethyl]-cyclohexyl}-amide] | 7.95 | 8.17 | 190 | 7.14 |  |
| CC(C)Cc1ccc(C(=O)N[C@H]2CC[C@H](CCN3CCC(c4coc5ccccc45)CC3)CC2)cc1 [Example 80, trans-N-{4-[2-(4-Benzofuran-3-yl-piperidin-1-yl)-ethyl]-cyclohexyl}-4-isobutyl-benzamide] | 8.57 | 8.38 | 190 | 6.54 |  |
| CCc1ccc(C(=O)N[C@H]2CC[C@H](CCN3CCC(c4coc5ccccc45)CC3)CC2)cc1 [Example 81, trans-N-{4-[2-(4-Benzofuran-3-yl-piperidin-1-yl)-ethyl]-cyclohexyl}-4-ethyl-benzamide] | 8.60 | 8.88 | 192 | 6.69 |  |
| O=C(N[C@H]1CC[C@H](CCN2CCC(c3coc4ccccc34)CC2)CC1)c1ccc(C2CCCCC2)cc1 [Example 82, trans-N-{4-[2-(4-Benzofuran-3-yl-piperidin-1-yl)-ethyl]-cyclohexyl}-4-cyclohexyl-benzamide] | 8.24 | 7.38 | 230 |  | inact. |
| CC(C)c1ccc(C(=O)N[C@H]2CC[C@H](CCN3CCC(c4coc5ccccc45)CC3)CC2)cc1 [Example 83, trans-N-{4-[2-(4-Benzofuran-3-yl-piperidin-1-yl)-ethyl]-cyclohexyl}-4-isopropyl-benzamide] | 8.59 | 8.32 | 188 | 6.40 |  |
| O=C(N[C@H]1CC[C@H](CCN2CCC(c3coc4ccccc34)CC2)CC1)c1ccc(C2CC2)cc1 [Example 84, trans-N-{4-[2-(4-Benzofuran-3-yl-piperidin-1-yl)-ethyl]-cyclohexyl}-4-cyclopropyl-benzamide] | 8.67 | 7.85 | 199 | 6.45 |  |
| O=C(Cc1noc2ccccc12)N[C@H]1CC[C@H](CCN2CCC(c3coc4ccccc34)CC2)CC1 [Example 85, trans-2-Benzo[d]isoxazol-3-yl-N-{4-[2-(4-benzofuran-3-yl-piperidin-1-yl)-ethyl]-cyclohexyl}-acetamide] | 8.09 | 6.84 | 175 | 6.61 |  |
| CS(=O)(=O)c1ccc(C(=O)N[C@H]2CC[C@H](CCN3CCC(c4coc5ccccc45)CC3)CC2)cc1 [Example 86, trans-N-{4-[2-(4-Benzofuran-3-yl-piperidin-1-yl)-ethyl]-cyclohexyl}-4-methanesulfonyl-benzamide] | 8.24 | 7.60 | 224 | 7.10 |  |
| O=C(N[C@H]1CC[C@H](CCN2CCC(c3coc4ccccc34)CC2)CC1)c1ccc(Cl)cc1Cl [Example 87, trans-N-{4-[2-(4-Benzofuran-3-yl-piperidin-1-yl)-ethyl]-cyclohexyl}-2,4-dichloro-benzamide] | 7.91 | 8.36 | 187 | 7.42 |  |
| CC(C)(C)c1ccc(S(=O)(=O)N[C@H]2CC[C@H](CCN3CCC(c4coc5ccccc45)CC3)CC2)cc1 [Example 88, trans-N-{4-[2-(4-Benzofuran-3-yl-piperidin-1-yl)-ethyl]-cyclohexyl}-4-tert-butyl-benzenesulfonamide] | 7.50 | 7.92 | 171 | 7.15 |  |
